The text below walks through data of patent US20240254129A1, “HETEROCYCLIC COMPOUNDS AND USES THEREOF” (Kumquat Biosciences Inc., priority 2021, published 2024).

Like-named read-outs stand apart in the source and are kept apart here.

The target of test [1] is T1, wildtype Kras / hSOS1 (Homo sapiens, UniProt P01116).
T1 construct: made in house; host or cells: E. coli BL21 (DE3)
The experiment in a line: HTRF assay, wildtype Kras / SOS1 interaction. Format: binding. Conditions: read-out: IC50 against wildtype Kras. In a few lines: (§1)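 Compounds, in duplicate at six concentrations from 10 μM to 0.01 μM, are added to GST-K-Ras premixed with anti-GST-Eu(K), then His-hSOS1 with anti-6His-XL665. After roughly 10 min, FRET is measured and the emission ratio is used to derive IC50.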
(Time-resolved FRET reads energy transfer from a long-lived donor to a nearby acceptor.)

Test [2] has as its target GST-tagged K-Ras mutant / His-tagged hSOS1 (Homo sapiens, UniProt P01116). The experiment in a line: HTRF assay, K-Ras mutant / SOS1 interaction. Format: binding. Conditions: read-out: IC50 against mutant Kras. In a few lines:
as §1

Where [3] appears, read: compound nos. 201-213, general methodology of example 5.
The mark [4] stands for this setting: compound nos. 102-196, general methodology of example 5.

Chain of GST-tagged K-Ras mutant / His-tagged hSOS1 (P01116 whole entry G12D, form open): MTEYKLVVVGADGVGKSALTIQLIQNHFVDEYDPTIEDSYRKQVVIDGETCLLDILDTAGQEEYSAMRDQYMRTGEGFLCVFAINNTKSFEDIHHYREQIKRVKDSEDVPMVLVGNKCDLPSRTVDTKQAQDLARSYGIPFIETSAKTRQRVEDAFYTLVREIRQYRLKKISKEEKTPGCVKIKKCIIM
T1 sequence (P01116 1-188 isoform P01116-2): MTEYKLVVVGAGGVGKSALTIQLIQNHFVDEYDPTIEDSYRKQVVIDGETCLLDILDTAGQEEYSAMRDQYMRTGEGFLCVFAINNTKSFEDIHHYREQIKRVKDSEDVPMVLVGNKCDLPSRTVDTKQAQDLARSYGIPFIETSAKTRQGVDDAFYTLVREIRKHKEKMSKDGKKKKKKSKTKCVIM

Consider `Nc1nc2c(-c3c(Cl)cc4c(N5[C@@H]6CCC[C@H]5C[C@H](O)C6)nc(OC[C@@]56CCCN5C[C@H](F)C6)nc4c3F)ccc(F)c2s1` [Compound 305, (1R,3R,5S)-9-(7-(2-amino-7-fluorobenzo[d]thiazol-4-yl)-6-chloro-8-fluoro-2-(((2R,7aS)-2-fluorotetra-hydro-1H-pyrrolizin-7a(5H)-yl)methoxy)quinazolin-4-yl)-9-azabicyclo[3.3.1]-nonan-3-ol], for which the IC50 in test [1] (compound nos. 301-306) and in test [2] (compound nos. 301-306) was < 1500 nM throughout.
On to `Oc1cc(-c2c(Cl)cc3c(N4C[C@H]5CC[C@@H](C4)N5)nc(OC[C@@]45CCCN4C[C@H](F)C5)nc3c2F)c2ccccc2c1` [Compound 202, 4-(4-((1R,5S)-3,8-diazabicyclo[3.2.1]octan-3-yl)-6-chloro-8-fluoro-2-(((2R,7aS)-2-fluorotetrahydro-1H-pyrrolizin-7a(5H)-yl)methoxy)quinazolin-7-yl)naphthalen-2-ol], for which the half-inhibitory concentration (IC50) in test [1] (setting [3]) and in test [2] (setting [3]) was < 1500 nM in each case.
With `N#Cc1c(N)sc2c(F)ccc(-c3c(Cl)cc4c(N5CCCC6(CNC6)C5)nc(OC[C@@]56CCCN5C[C@H](F)C6)nc4c3F)c12` [Compound 526, 2-amino-4-(6-chloro-8-fluoro-2-(((2R,7aS)-2-fluorotetrahydro-1H-pyrrol-izin-7a(5H)-yl)methoxy)-4-(2,6-diazaspiro[3.5]nonan-6-yl)quinazolin-7-yl)-7-fluorobenzo[b]thiophene-3-carbonitrile], the IC50 in test [1] (compound nos. 401-703) is > 500 nM; in test [2] (compound nos. 401-703), < 500 nM.
Turning to `Nc1nc2c(-c3c(Cl)cc4c(N5CCCNCC5)nc(OC[C@@]56CCCN5C[C@H](F)C6)nc4c3F)ccc(F)c2s1` [Compound 621, 4-(6-chloro-4-(1,4-diazepan-1-yl)-8-fluoro-2-(((2R,7aS)-2-fluorotetrahydro-1H-pyrrolizin-7a(5H)-yl)meth-oxy)quinazolin-7-yl)-7-fluorobenzo[d]thiazol-2-amine], the IC50 in test [1] (compound nos. 401-703) was > 500 nM; in test [2] (compound nos. 401-703), < 500 nM.
As to `Fc1c(N2CCCc3cccc(Cl)c32)cc(Cl)c2c(N3CCCCCC3)nc(OCC34CCCN3CCC4)nc12` [Compound 467, 4-(azepan-1-yl)-5-chloro-7-(8-chloro-3,4-dihydroquin-olin-1(2H)-yl)-8-fluoro-2-((tetrahydro-1H-pyrrolizin-7a(5H)-yl)methoxy)quin-azoline], the half-inhibitory concentration (IC50) was < 500 nM in test [1] (compound nos. 401-703) and > 500 nM in test [2] (compound nos. 401-703).
In the same order, the values of `Cc1ccc(C2(N)CC2)cc1-c1c(Cl)cc2c(N3CC4CCC(C3)N4)nc(OCC34CCCN3CCC4)nc2c1F` [Compound 661, 1-(3-(4-(3,8-diazabicyclo-[3.2.1]octan-3-yl)-6-chloro-8-fluoro-2-((tetrahydro-1H-pyrrolizin-7a(5H)-yl)meth-oxy)quinazolin-7-yl)-4-methylphenyl)cyclopropan-1-amine] are > 500 nM and > 500 nM.
For `C#Cc1c(F)ccc2cc(O)cc(-c3ccc4c(N5CCCC6(CNC6)C5)nc(OC[C@@]56CCCN5C[C@H](F)C6)nc4c3F)c12` [Compound 508, 5-ethynyl-6-fluoro-4-(8-fluoro-2-(((2R,7aS)-2-fluorotetrahydro-1H-pyrrol-izin-7a(5H)-yl)methoxy)-4-(2,6-diazaspiro[3.5]nonan-6-yl)quinazolin-7-yl)naph-thalen-2-ol], in that order: > 500 nM and < 500 nM.
For the compound `Nc1nc2c(-c3c(Cl)cc4c(N5CCOCC(O)C5)nc(OCC56CCCN5C[C@H](F)C6)nc4c3F)ccc(F)c2s1` (stereo partly drawn) [Compound 160, 4-(7-(2-amino-7-fluoro-benzo[d]thiazol-4-yl)-6-chloro-8-fluoro-2-(((2R)-2-fluorotetrahydro-1H-pyrrol-izin-7a(5H)-yl)methoxy)-quinazolin-4-yl)-1,4-oxazepan-6-ol], the half-inhibitory concentration (IC50) was < 500 nM in test [1] (setting [4]) and > 500 nM in test [2] (setting [4]).
Turning to `CN1CCC[C@H]1COc1nc(N2CCCC(F)C(F)(F)C2)c2cc(Cl)c(-c3cccc4sc(N)nc34)c(F)c2n1` (stereo partly drawn) [Compound 459, 4-(6-chloro-8-fluoro-2-(((S)-1-methylpyrrolidin-2-yl)-methoxy)-4-(3,3,4-trifluoro-azepan-1-yl)quinazolin-7-yl)benzo[d]thiazol-2-amine], the IC50 in test [1] (compound nos. 401-703) and in test [2] (compound nos. 401-703) was < 500 nM throughout.
With `Fc1c(-c2cccc3sccc23)c(Cl)cc2c(N3CC4CCC(C3)N4)nc(OC[C@@]34CCCN3C[C@H](F)C4)nc12` [Compound 579, 7-(benzo[b]thiophen-4-yl)-4-(3,8-diazabicyclo[3.2.1]-octan-3-yl)-6-chloro-8-fluoro-2-(((2R,7aS)-2-fluorotetrahydro-1H-pyrrol-izin-7a(5H)-yl)methoxy)-quinazoline], the IC50 in test [1] (compound nos. 401-703) and in test [2] (compound nos. 401-703) was > 500 nM in each case.
As for `CN1CCC[C@H]1COc1nc(N2CCNCC(F)(F)C2)c2cc(Cl)c(-c3cccc4oc(N)nc34)c(F)c2n1` [Compound 158, 4-(6-chloro-4-(6,6-difluoro-1,4-diazepan-1-yl)-8-fluoro-2-(((S)-1-methylpyrrolidin-2-yl)methoxy)quinazolin-7-yl)benzo[d]oxazol-2-amine], the 50% inhibitory concentration (IC50) in test [1] (setting [4]) and in test [2] (setting [4]) was < 500 nM in each case.
In the case of `CN1CCC[C@H]1COc1nc(N2CC3CCNC3C2)c2cc(Cl)c(-c3cccc4sc(N)nc34)c(F)c2n1` (stereo partly drawn) [Compound 124, 4-(6-chloro-8-fluoro-4-(hexahydropyrrolo[3,4-b]-pyrrol-5(1H)-yl)-2-(((S)-1-methylpyrrolidin-2-yl)meth-oxy)quinazolin-7-yl)benzo-[d]thiazol-2-amine], the half-maximal inhibitory concentration (IC50) in test [1] (setting [4]) and in test [2] (setting [4]) was > 500 nM in each case.
On to `Nc1nc2c(-c3c(Cl)cc4c(N5C[C@H]6CC[C@@H](C5)C6(F)F)nc(OC[C@@]56CCCN5C[C@H](F)C6)nc4c3F)ccc(F)c2s1` [Compound 655, 4-(6-chloro-4-((1R,5S)-8,8-difluoro-3-azabicyclo[3.2.1]-octan-3-yl)-8-fluoro-2-(((2R,7aS)-2-fluorotetra-hydro-1H-pyrrolizin-7a(5H)-yl)methoxy)quinazolin-7-yl)-7-fluorobenzo[d]thiazol-2-amine], for which the half-inhibitory concentration (IC50) in test [1] (compound nos. 401-703) and in test [2] (compound nos. 401-703) was > 500 nM throughout.
`CN1CCC[C@H]1COc1nc(N2CC3CNC(C3)C2)c2cc(Cl)c(-c3cccc4sc(N)nc34)c(F)c2n1` (stereo partly drawn) [Compound 137, 4-(4-(3,6-diazabicyclo-[3.2.1]octan-3-yl)-6-chloro-8-fluoro-2-(((S)-1-methyl-pyrrolidin-2-yl)methoxy)-quinazolin-7-yl)benzo[d]-thiazol-2-amine]: the half-maximal inhibitory concentration (IC50) in test [1] (setting [4]) and in test [2] (setting [4]) was > 500 nM each time.
As for `CN1CCC[C@H]1COc1nc(N2CCCC(C(=O)O)CC2)c2cc(Cl)c(-c3cccc4sc(N)nc34)c(F)c2n1` (stereo partly drawn) [Compound 535, 1-(7-(2-aminobenzo[d]thia-zol-4-yl)-6-chloro-8-fluoro-2-(((S)-1-methylpyrrolidin-2-yl)methoxy)quinazolin-4-yl)azepane-4-carboxylic acid], the concentration for half-maximal inhibition (IC50) is > 500 nM in test [1] (compound nos. 401-703) and < 500 nM in test [2] (compound nos. 401-703).
Turning to `Nc1nc2c(-c3ccc4c(N5CC6CCC(C5)N6)nc(OC[C@@]56CCCN5C[C@H](F)C6)nc4c3F)ccc(F)c2s1` [Compound 207, 4-(4-((1R,5S)-3,8-diaza-bicyclo[3.2.1]octan-3-yl)-8-fluoro-2-(((2R,7aS)-2-fluoro-tetrahydro-1H-pyrrolizin-7a(5H)-yl)methoxy)quin-azolin-7-yl)-7-fluorobenzo-[d]thiazol-2-amine], the IC50 in test [1] (setting [3]) and in test [2] (setting [3]) was < 1500 nM throughout.

As a reminder, the IC50 is the point on the concentration scale where inhibition reaches its midpoint.
